Experiments:
Assay type in all cases: in vivo
[1] = test system: radish plants; test: Effects of PGR on radish growth (soil applied); conditions: soil applied at planting and weekly, PGR solution 12 oz/acre, IAA or kinetin 0.84 micrograms per square foot; for Average Leaf Length: largest leaf, 21 days after planting, ± SD of the mean; for Average Hypocotyl Length: measured 21 days after planting, ± standard deviation of the mean
Description: In this experiment, the effects of PGRs on radish growth were observed. A total of eighty (80) plants were used for this experiment. Twenty (20) plants were treated with water as a control. Twenty (20) plants were treated with a PGR solution corresponding to a rate of 12 oz/acre. The PGR solution is an aqueous solution including 0.015% IAA, 0.005% IBA, 0.009% cytokinin and 0.005% gibberellic acid as active ingredients. […] A small measure, 0.0084 ml of this solution, was diluted into 100 ml of water and applied to the soil of a container having a surface area of about 1 square foot to correspond to an application rate of 12 oz/acre. Twenty (20) plants were treated with an auxin solution containing indole-3-acetic acid (IAA) at a rate of 0.84 micrograms in 100 ml water per square foot of surface area of the container. Finally, twenty (20) plants were treated with the cytokinin kinetin at a rate of 0.84 micrograms in 100 ml water per square foot of surface area of the container. Treatments were applied to soil at the time of planting and repeated every week thereafter. Length of the hypocotyl and largest leaf of each plant was measured 21 days after planting. The mean hypocotyl length and leaf length was calculated. Results are tabulated in Table I and illustrated in FIGS. 3 and 4.

[2] = test system: radish plants; test: Radish shoot height, treated twice at four day intervals; conditions: IAA and kinetin equivalent to relative amounts in 6 oz/acre PGR solution; two treatments; 15 plants
Description: In this portion of the experiment radish plants were treated twice at four day intervals. Plants were treated first on emergence, and again four (4) days later. Measurements were taken one week after the last treatment. Treatments are equivalent to 6 oz/acre, 12 oz/acre, and 24 oz/acre of PGR solution, while the IAA and kinetin treatments are equivalent to the relative amounts in the 6 oz/acre rate of PGR solution. […] The results of these experiments are tabulated in Table II and illustrated in FIG. 5.

[3] = test system: Tomato variety TSH04; test: Effects of PGRs on tomato fruit weight (greenhouse); conditions: one truss per plant; 112 days after planting; PGR 6 oz/acre, IAA/kinetin 0.42 or 0.11 micrograms; soil or foliar not told apart
Description: In this experiment, the effects of PGRs on tomato yield were determined. Tomato variety TSH04, which is a processing tomato, was used. All plants were grown in five gallon pots in a greenhouse. Eight plants were used for each treatment. Application of the treatments was done aerially to eight plants and in the soil for eight plants to allow comparison of soil versus foliar application of the PGRs. Treatments were 6 oz/acre PGR solution. The treating solutions were prepared by diluting 0.0042 ml of concentrated solution into 100 ml water for application to the soil, or into 50 ml water for foliar application. The IAA solution was prepared by diluting 0.42 micrograms of IAA into 100 ml water for application to the soil, or into 50 ml water for foliar application. The cytokinin solution was prepared by diluting 0.42 micrograms of kinetin into 100 ml water for application to the soil, or into 50 ml water for spraying of the foliage. The solution containing both IAA and kinetin at a 1:1 ratio was prepared by diluting 0.42 micrograms of IAA and 0.42 micrograms of kinetin into 100 ml water for application to the soil, or into 50 ml water for foliar application. A solution containing both IAA and kinetin at a 4:1 ratio was prepared by diluting 0.42 micrograms of IAA and 0.11 micrograms of kinetin into 100 ml water for soil application, or into 50 ml water for foliar application. Finally, a solution containing both IAA and kinetin at a 1:4 ratio was prepared by diluting 0.11 micrograms of IAA and 0.42 micrograms of kinetin into 100 ml water for soil application, or into 50 ml water for foliar application. Water was employed as a control. Plants were kept pruned to one fruiting truss per plant and the weight of the fruit from each plant was measured when most of the fruit had ripened (112 days after planting). FIGS. 6 and 7 illustrate the increased fruit weight achieved, respectively, for total and individual fruits with each treatment.

[4] = test system: National pickling cucumber; test: Effects of PGRs on cucumber internode length, 21 days; conditions: soil applied weekly, 21 days after planting; for Internode 1 length: first (bottom) internode, 6 oz/acre or 0.42 micrograms; for Internode 2 length: second (middle) internode; for Internode 3 length: third (top) internode
Description: In this experiment, the effect of PGRs on cucumber internode length was determined. The cucumber variety used was the National pickling cucumber distributed by NK Lawn & Garden Co. (Chattanooga, Tenn.). Eight plants were used per treatment. Treatments were applied to the soil of each five-gallon pot containing one plant per pot. Treatments were 6 oz/acre PGR solution. The final PGR solution was prepared by diluting 0.0042 ml of the concentrated solution into 100 ml water. The IAA solution was prepared by diluting 0.42 micrograms of IAA into 100 ml water. The cytokinin solution was prepared by diluting 0.42 micrograms of kinetin into 100 ml water. Finally, plants were treated with 6 oz/acre N-Large. The treating solution was prepared by diluting 0.0042 ml of the commercial solution into 100 ml water. N-Large is a formulation containing 4 percent gibberellin (GA3). Water was used as a control. Treatments were applied to the soil at the time of planting, and weekly thereafter. Twenty-one (21) days after planting, the internode length of the first (bottom), second (middle), and third (top) internodes were measured to the nearest millimeter. The average internode length for first, second, and third internodes was calculated for each treatment. Results are tabulated in Table IV and illustrated in FIG. 8.

[5] = test system: National pickling cucumber; test: Effects of PGRs on cucumber vines and fruit, 84 days; conditions: for Average Branch Number / Average Internode Number / Average Vine Length: 84 days after planting; for Average Internode Length: 84 days, vine length divided by internode number; for Average Cucumber Weight: harvested 84 days after planting

SMILES | Average Leaf Length [1] | Average Hypocotyl Length [1] | Shoot Height Foliar Applied [2] | Average total fruit weight per plant [3] | Average weight of each fruit [3] | Internode 1 length [4] | Internode 2 length [4] | Internode 3 length [4] | Average Branch Number [5] | Average Internode Number [5] | Average Vine Length [5] | Average Internode Length [5] | Average Cucumber Weight [5]
O=C(O)Cc1c[nH]c2ccccc12 [Auxin, indole-3-acetic acid] | 121.15 ± 5.20 mm | 51.15 ± 2.64 mm | 91.46 ± 4.20 mm | 63.79 ± 7.59 grams | 11.45 ± 1.99 grams | 115.88 ± 4.01 millimeters | 25.38 ± 3.13 millimeters | 4.50 ± 1.91 millimeters | 7.25 ± 1.86 | 30.75 ± 1.96 | 267.00 ± 5.70 mm | 8.72 ± 0.87 mm | 311.98 ± 9.17 gm
c1coc(CNc2ncnc3[nH]cnc23)c1 [Cytokinin, kinetin] | 101.25 ± 4.46 mm | 46.10 ± 3.10 mm | 89.00 ± 4.55 mm | 89.08 ± 6.85 grams | 14.76 ± 2.47 grams | 106.38 ± 3.98 millimeters | 20.25 ± 3.40 millimeters | 2.13 ± 1.25 millimeters | 6.25 ± 2.27 | 30.50 ± 1.75 | 255.50 ± 5.61 mm | 8.37 ± 0.62 mm | 229.71 ± 1.33 gm

Source: US8207091B2, “Methods for improving growth and crop productivity of plants by adjusting plant hormone levels, ratios and/or co-factors” (Stoller Enterprises, Inc., priority 2004, dated 2012)
